For one assay, the target named is T1, mMate1 (Mus musculus, UniProt Q8K0H1).
T1 construct: expressed in transfected cells; host or cells: HEK293
T1 sequence (Q8K0H1 1-567): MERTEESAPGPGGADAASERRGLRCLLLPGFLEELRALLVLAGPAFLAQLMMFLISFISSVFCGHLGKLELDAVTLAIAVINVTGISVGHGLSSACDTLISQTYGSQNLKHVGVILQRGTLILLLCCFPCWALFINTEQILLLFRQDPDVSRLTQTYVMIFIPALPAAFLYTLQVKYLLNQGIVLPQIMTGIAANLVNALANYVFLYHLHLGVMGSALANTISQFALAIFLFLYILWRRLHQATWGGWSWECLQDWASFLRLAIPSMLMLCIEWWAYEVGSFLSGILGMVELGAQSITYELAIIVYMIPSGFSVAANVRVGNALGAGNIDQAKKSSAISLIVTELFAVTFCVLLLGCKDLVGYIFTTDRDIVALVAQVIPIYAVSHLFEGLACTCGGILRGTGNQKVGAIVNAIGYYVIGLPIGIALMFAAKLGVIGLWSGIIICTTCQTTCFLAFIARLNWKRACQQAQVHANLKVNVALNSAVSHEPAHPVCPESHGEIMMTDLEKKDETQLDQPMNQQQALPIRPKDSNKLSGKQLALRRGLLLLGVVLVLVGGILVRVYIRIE
The assay can be described thus: Two-point inhibition of mMate1-mediated metformin uptake in transfected HEK293 cells. The class given is in vitro ADME. The note with it: 1 and 10 μM; metformin 20 μM, 1 min. How it is done:
(§1) Well-characterized mOct1-, mOct2-, mOat1-, mOat2-, mOat3-, mMate1-, hOAT1-, hOAT3-, hOAT4-, hMRP2-, mMdr1a- and mMdr1b-transfected HEK293 cells and the respective vector-transfected control HEK293 cells were used.[42],[51],[52] All HEK293 cells (transporter-transfected and vector-transfected) were cultured in DMEM (Sigma, high glucose, 10% FBS, 1% penicillin (10,000 Units/mL)/streptomycin (10 mg/mL)) at 37°C under 5% CO2 in humidified atmosphere. The cells were routinely checked for the absence of mycoplasma infection. For the preparation of HEK293 cell monolayers, 24-well plates were pretreated with a poly-D-lysine hydrobromide solution (0.1 mg/mL). […]
For the uptake assay, the growth medium was aspirated, and each well was rinsed three times with 0.5 mL of incubation buffer (HBSS supplemented with 20 mM HEPES, pH 7.4) and incubated for 20 min at 37 °C. […] Cells were solubilized with 0.6 mL of 1N NaOH overnight and transferred into scintillation vials. ^3H and ^14C contents were measured after the addition of 2.5 mL of scintillator in a liquid scintillation counter.
The cellular protein amount was determined in parallel for each cell line (vector- and transporter-transfected) from six wells in a different 24-well reference plate using the Bradford method. […]
The inhibitory effect (I(%)) was calculated according to the formula: [drawing 5] […]

The target of a further assay is T2, mMdr1b (Mus musculus, UniProt P06795).
T2 construct: expressed in transfected cells; host or cells: HEK293
In words: Two-point inhibition of mMdr1b-mediated efflux of rhodamin123 in transfected HEK293 cells. Format: in vitro ADME. The note with it: rhodamin123 10 μM, efflux 30 min. How it is done:
as §1, with “mg/mL). Each well was coated with 0.5 mL of poly-D-lysine solution and incubated for at least 15 min.” for “mg/mL).”
For efflux assays, growth medium was aspirated, and each well was rinsed twice with 0.5 mL of incubation HBSS buffer (supplemented with 20 mM HEPES, pH 7.4) and then preincubated in 200 μL of incubation buffer containing 10 μM rhodamin123 and 10 μM cyclosporine A for 60 min at 37 °C for loading the cells with rhodamin123. […] Samples were diluted with incubation buffer, and fluorescence was measured in a 96-well plate (Sarstedt, flat bottom) at an extinction of 490 nm and emission of 535 nm. […]
The inhibitory effect I (%) and the efflux ratio was calculated in the same way described for the uptake assays.

T2 sequence (P06795 whole entry): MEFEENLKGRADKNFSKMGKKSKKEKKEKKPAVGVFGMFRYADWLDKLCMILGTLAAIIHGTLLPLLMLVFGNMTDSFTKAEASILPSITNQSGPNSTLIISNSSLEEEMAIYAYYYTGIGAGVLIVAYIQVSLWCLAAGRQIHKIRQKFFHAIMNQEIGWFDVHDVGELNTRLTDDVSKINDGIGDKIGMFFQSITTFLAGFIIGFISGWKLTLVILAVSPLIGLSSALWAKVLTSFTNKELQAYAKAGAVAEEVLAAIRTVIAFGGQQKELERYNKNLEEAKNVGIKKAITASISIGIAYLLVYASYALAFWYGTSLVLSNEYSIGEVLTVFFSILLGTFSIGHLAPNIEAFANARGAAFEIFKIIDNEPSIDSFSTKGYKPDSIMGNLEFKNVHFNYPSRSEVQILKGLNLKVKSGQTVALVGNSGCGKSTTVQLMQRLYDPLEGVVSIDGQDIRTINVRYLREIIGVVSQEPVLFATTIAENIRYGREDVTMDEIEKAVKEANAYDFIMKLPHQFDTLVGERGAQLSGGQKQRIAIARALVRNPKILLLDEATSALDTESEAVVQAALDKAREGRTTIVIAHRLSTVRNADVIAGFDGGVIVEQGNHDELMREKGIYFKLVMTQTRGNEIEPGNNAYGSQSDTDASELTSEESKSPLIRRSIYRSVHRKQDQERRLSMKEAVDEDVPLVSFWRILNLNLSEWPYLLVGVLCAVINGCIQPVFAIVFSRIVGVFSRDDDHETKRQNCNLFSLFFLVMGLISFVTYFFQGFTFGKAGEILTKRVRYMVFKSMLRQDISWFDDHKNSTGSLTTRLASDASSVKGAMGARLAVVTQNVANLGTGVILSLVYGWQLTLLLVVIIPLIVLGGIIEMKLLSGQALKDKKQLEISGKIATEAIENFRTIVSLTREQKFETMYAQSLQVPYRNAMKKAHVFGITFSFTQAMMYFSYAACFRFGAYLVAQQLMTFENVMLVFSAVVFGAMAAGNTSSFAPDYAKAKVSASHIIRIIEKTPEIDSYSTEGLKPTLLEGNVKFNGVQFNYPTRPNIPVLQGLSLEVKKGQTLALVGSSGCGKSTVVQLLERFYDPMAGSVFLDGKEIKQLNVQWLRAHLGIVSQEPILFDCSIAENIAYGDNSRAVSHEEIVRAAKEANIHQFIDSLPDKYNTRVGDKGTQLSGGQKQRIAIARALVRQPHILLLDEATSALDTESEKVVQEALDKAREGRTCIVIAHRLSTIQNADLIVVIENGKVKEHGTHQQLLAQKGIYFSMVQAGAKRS

Take `CC(=O)C1=C(O)[C@@H](N)[C@H]2Cc3c(c(O)c4c(O)c(C)ccc4c3C)C(=O)[C@@]2(O)C1=O` [CHD, chelocardin]: the “inhibitory effect on mMate1 (in words)” value on mMate1 is reported as “weak inhibitory effect”. In addition, the “inhibitory effect on mMdr1b (in words)” value at mMdr1b (1 and 10 μM) was “no effect”.
On to `Cc1ccc2c(C)c3c(c(O)c2c1O)C(=O)[C@@]1(O)C(=O)C(C(N)=O)=C(O)[C@@H](N)[C@H]1C3` [CDCHD, amidochelocardin], for which the “inhibitory effect on mMate1 (in words)” value on mMate1 is recorded as “did not have major effects”. On mMdr1b (HEK293, at 10 μM, read-out: inhibitory effect on mMdr1b), the inhibition at 10 µM was approximately 30%.

Source of the values: paper PMC11249637, “Interaction of the Atypical Tetracyclines Chelocardin and Amidochelocardin with Renal Drug Transporters” (ACS Pharmacology & Translational Science, 2024).
